Among the data in PubChem BioAssay (NCI) are GI50 and TGI values, retold here.

Among the test systems are NCI-H522 lung; COLO 205 colon; SW-620 colon; NCI-H226 lung; UACC-257 melanoma; OVCAR-3 ovarian; CAKI-1 renal; SK-MEL-28 melanoma; MOLT-4 leukemia; M14 melanoma.
Common to all, as to assay: NCI-60 cell line screen, 48 h

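All cell lines were grown in 96-well plates and treated with compound for 48 hours. The concentration for 50% growth inhibition is given as GI50. At the TGI there is no net growth.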

Regarding `NC(=O)c1cnc(N[C@@H]2CCCC[C@@H]2N)nc1Nc1cccc(-n2nccn2)c1`, the GI50 in the assay with NCI-H522 lung is 4.14 µM; in the assay on COLO 205 colon, 1.81 µM; with SW-620 colon, 3.81 µM; in the assay on NCI-H226 lung, 4.73 µM; in the assay with UACC-257 melanoma, 2.02 µM; in the assay with OVCAR-3 ovarian, 5.94 µM. The GI50 is 2.47 µM with CAKI-1 renal, 3.26 µM in the assay with SK-MEL-28 melanoma, 2.94 µM in the assay on MOLT-4 leukemia and 2.11 µM with M14 melanoma. Also, the TGI in the assay with NCI-H522 lung is 17.5 µM; in the assay on COLO 205 colon, 4.56 µM; with SW-620 colon it was 13.4 µM; in the assay on NCI-H226 lung, 17.8 µM; with UACC-257 melanoma, 4.49 µM; in the assay on OVCAR-3 ovarian, 18.4 µM. The TGI turned out to be 8.09 µM with CAKI-1 renal, 11.3 µM in the assay on SK-MEL-28 melanoma, 12.7 µM with MOLT-4 leukemia and 6.14 µM in the assay on M14 melanoma.
Turning to `COc1ccccc1-[n+]1cc(-c2ccc(-c3ccccc3)cc2)n2c1CCCCC2`, the GI50 in the assay with NCI-H522 lung is 0.169 µM; in the assay on COLO 205 colon, 0.236 µM; in the assay with SW-620 colon, 0.587 µM; in the assay on NCI-H226 lung, 0.773 µM; in the assay with UACC-257 melanoma, 0.318 µM; in the assay with OVCAR-3 ovarian, 0.233 µM. Moreover, the GI50 was 11.5 µM in the assay on CAKI-1 renal, 0.384 µM in the assay with SK-MEL-28 melanoma, 0.292 µM with MOLT-4 leukemia and 0.443 µM with M14 melanoma. Also, the TGI with NCI-H522 lung stood at 9.03 µM; in the assay on COLO 205 colon, 2.62 µM; in the assay on SW-620 colon, 12.7 µM; in the assay on NCI-H226 lung, 13.4 µM; in the assay on UACC-257 melanoma it was 12.9 µM; with OVCAR-3 ovarian, 12.4 µM. For the same compound, the TGI amounted to 33.4 µM in the assay on CAKI-1 renal, 11.2 µM in the assay with SK-MEL-28 melanoma, 3.97 µM with MOLT-4 leukemia and 10.1 µM with M14 melanoma.
For `COC(=O)C1CC(C(=O)OC)c2nc3cc(C)ccc3nc21` (stereo not given), the TGI in the assay with NCI-H522 lung, in the assay on COLO 205 colon, with SW-620 colon, in the assay on NCI-H226 lung, in the assay on UACC-257 melanoma and in the assay on OVCAR-3 ovarian was more than 100 µM throughout. Besides, the TGI in the assay on CAKI-1 renal, with SK-MEL-28 melanoma, with MOLT-4 leukemia and with M14 melanoma was more than 100 µM in each case.
Take `Cc1ccc(C(=O)Nc2ccc(CN3CCN(C)CC3)c(C(F)(F)F)c2)cc1C#Cc1cnc(N)cc1C#N`: the GI50 is 0.176 µM in the assay on NCI-H522 lung; 0.0901 µM in the assay on COLO 205 colon; 0.33 µM in the assay with SW-620 colon; 0.155 µM with NCI-H226 lung; 0.132 µM in the assay on UACC-257 melanoma; 0.211 µM in the assay on OVCAR-3 ovarian. Further, the GI50 was 0.0828 µM in the assay with CAKI-1 renal, 0.106 µM in the assay with SK-MEL-28 melanoma, 0.137 µM in the assay with MOLT-4 leukemia and 0.021 µM in the assay on M14 melanoma. For the same compound, the TGI in the assay with NCI-H522 lung came to 0.925 µM; in the assay with COLO 205 colon it was 0.714 µM; with SW-620 colon, 1.15 µM; in the assay on NCI-H226 lung it was 4.95 µM; in the assay on UACC-257 melanoma, 0.834 µM; with OVCAR-3 ovarian, 1.01 µM. Further, the TGI came to 0.538 µM in the assay with CAKI-1 renal, 0.701 µM in the assay on SK-MEL-28 melanoma, 1.08 µM in the assay with MOLT-4 leukemia and 0.511 µM with M14 melanoma.
Consider `CC(CN(CP(=O)([O-])[O-])CP(=O)([O-])[O-])N(CP(=O)([O-])[O-])CP(=O)([O-])[O-].N.N.[Pt+2]` (stereo not given), for which the GI50 in the assay on NCI-H522 lung, with COLO 205 colon, in the assay on SW-620 colon, in the assay on NCI-H226 lung, with UACC-257 melanoma and in the assay with OVCAR-3 ovarian was more than 100 µM each time. In addition, the GI50 with CAKI-1 renal, in the assay with SK-MEL-28 melanoma, in the assay with MOLT-4 leukemia and with M14 melanoma was more than 100 µM throughout. Besides, the TGI with NCI-H522 lung, in the assay on COLO 205 colon, in the assay with SW-620 colon, in the assay with NCI-H226 lung, in the assay with UACC-257 melanoma and in the assay on OVCAR-3 ovarian was more than 100 µM throughout. For the same compound, the TGI in the assay with CAKI-1 renal, with SK-MEL-28 melanoma, in the assay on MOLT-4 leukemia and in the assay with M14 melanoma was more than 100 µM in each case.
With `Clc1ccc(Cl)c2[s+]snc12`, the TGI in the assay on NCI-H522 lung was 44 µM; in the assay with COLO 205 colon, more than 60.1 µM; with SW-620 colon, more than 51.9 µM; in the assay with NCI-H226 lung, more than 100 µM; in the assay with UACC-257 melanoma, more than 100 µM; in the assay on OVCAR-3 ovarian, more than 100 µM. Also, the TGI with CAKI-1 renal, with SK-MEL-28 melanoma, in the assay with MOLT-4 leukemia and with M14 melanoma was more than 100 µM each time.
`C=C1[C@@H](C)[C@H]2[C@H](Cc3ccccc3)NC(=O)[C@]23OC(=O)/C=C/[C@H](O)CCC[C@@H](C)C/C=C/[C@H]3[C@@H]1O`: the TGI in the assay with NCI-H522 lung is more than 92.2 µM; in the assay on COLO 205 colon, more than 100 µM; in the assay on SW-620 colon it was more than 100 µM; with NCI-H226 lung, 23.4 µM; in the assay with UACC-257 melanoma, 59.9 µM; with OVCAR-3 ovarian, 91.4 µM. The TGI in the assay on CAKI-1 renal was 4.51 µM; in the assay on SK-MEL-28 melanoma, more than 100 µM; in the assay on MOLT-4 leukemia, 72.3 µM; in the assay on M14 melanoma, more than 100 µM.
Consider `CN(C)CCCn1c2c(c3cnccc3c1=O)C(=O)c1ccccc1-2`, for which the GI50 in the assay on NCI-H522 lung is 0.312 µM; in the assay with COLO 205 colon, 0.269 µM; with SW-620 colon it was 0.209 µM; in the assay with NCI-H226 lung it was 0.388 µM; in the assay with UACC-257 melanoma, 0.486 µM; in the assay on OVCAR-3 ovarian, 1.1 µM. Further, the GI50 in the assay with CAKI-1 renal was 0.376 µM; in the assay on SK-MEL-28 melanoma it was 0.508 µM; in the assay with MOLT-4 leukemia, 0.232 µM; in the assay on M14 melanoma it was 0.391 µM. Moreover, the TGI in the assay on NCI-H522 lung was 7.24 µM; in the assay with COLO 205 colon, 3.66 µM; in the assay on SW-620 colon, 10.9 µM; with NCI-H226 lung it was 2.85 µM; with UACC-257 melanoma, 3.21 µM; in the assay with OVCAR-3 ovarian, 5.47 µM. For the same compound, the TGI worked out at 7.01 µM in the assay on CAKI-1 renal, 2.59 µM in the assay with SK-MEL-28 melanoma, 2.1 µM in the assay on MOLT-4 leukemia and 2.41 µM in the assay on M14 melanoma.
Consider `CCN(Cc1cccc(OC)c1)c1ccc(CO)c(Cl)c1`, for which the GI50 with NCI-H522 lung was 9.51 µM; in the assay with COLO 205 colon, 1.02 µM; in the assay on SW-620 colon, 0.763 µM; in the assay on NCI-H226 lung, 0.0957 µM; with UACC-257 melanoma, 0.121 µM; in the assay on OVCAR-3 ovarian, 0.477 µM. Besides, the GI50 is 0.901 µM with CAKI-1 renal, 14.7 µM in the assay on SK-MEL-28 melanoma, 21.2 µM in the assay with MOLT-4 leukemia and 16.2 µM with M14 melanoma. The TGI in the assay on NCI-H522 lung is 32.6 µM; in the assay with COLO 205 colon it was 4.35 µM; in the assay on SW-620 colon, more than 100 µM; with NCI-H226 lung, 0.231 µM; with UACC-257 melanoma, 0.295 µM; in the assay with OVCAR-3 ovarian, 4.34 µM. The TGI with CAKI-1 renal was 35.3 µM; with SK-MEL-28 melanoma, 35.8 µM; with MOLT-4 leukemia, more than 71.9 µM; in the assay with M14 melanoma it was 41 µM.
